# According to PMC8573827, “Zinc protoporphyrin binding to telomerase complexes and inhibition of telomerase activity” (Pharmacology Research & Perspectives, 2021):
# Tests used:
# Huh7 cells [1] = test: MTT cell proliferation/viability assay, Huh7; type: cell-based, human; settings: Huh7, 10 µM MPP, 48 h
# Procedure: (§1) MPPs were tested for effects on cell proliferation and viability using MTT (3‐(4,5‐dimethylthiazol‐2‐yl)‐2,5‐diphenyltetrazolium bromide) dye conversion assay (Cell Titer 96, Promega) as we described[22] with some modifications. Cells were plated into 96 well plates and allowed to attach overnight. MPPs were added to the cultures and then incubated for the times indicated. At assay time, MTT reagent was added and absorbance measured at 570 nm. Controls included buffer blanks containing MPP because of background absorbances reported for MPPs by us[22] and others.[23] The formula used for determination of viable cells relative to controls was: %viablecells=(abssample‐absblank)/(absconrtrol‐absblank)×100
# Hek293 cells [2] = test: MTT cell proliferation/viability assay, Hek293; type: cell-based, human; settings: Hek293, 10 µM MPP, 48 h
# Procedure: as §1
# U2OS cells [3] = test: MTT cell proliferation/viability assay, telomerase negative U2OS; type: cell-based, human; settings: 48 h
# Procedure: as §1
# [4] = system: TERT transfected U2OS cells; test: MTT viability assay in U2OS cells transfected with human TERT; type: cell-based; settings: U2OS transfected with pCI neo-hEST2, ZnPP 48 h
# Procedure: Lipofectamine^T ^M 2000 (ThermoFisher) was used for all transfections and closely followed the manufacturer's protocol. For TERT overexpression the catalytically active TERT plasmid pCI neo‐hEST2, a gift from Dr. Robert Weinberg (Addgene plasmid # 1781)[19] was used. Telomerase RNA component (TERC) plasmid (pBS U3‐hTR‐500) was also obtained from Addgene (plasmid # 28170), a gift from Dr. Kathleen Collins.[20], [21]
# as §1
# Huh7 cells [5] = test: DNA synthesis, 3H-thymidine incorporation, Huh7; type: cell-based, human; settings: Huh7, 10 µM MPP, 24–72 h
# Procedure: (§2) Semi‐quantitative differences in DNA synthesis were determined by measuring ^3H‐thymidine uptake into whole cells in log phase growth. At indicated time points, cell cultures were washed with serum‐free, thymidine deficient medium, then incubated with fresh medium containing 1 μCi/ml of ^3H‐thymidine for two hours at 37°C. Cultures were washed twice with PBS while attached to dishes, then lysed with 0.5 M NaOH and the relative amount of ^3H‐thymidine quantified by scintillation counting.
# Hek293 cells [6] = test: DNA synthesis, 3H-thymidine incorporation, Hek293; type: cell-based, human; settings: Hek293, 10 µM MPP, 24–72 h
# Procedure: as §2
# Huh7 cells [7] = test: Annexin V apoptosis assay, Huh7; type: cell-based, human; settings: Huh7, 10 µM, 48 h
# Procedure: (§3) For detection of MPP apoptotic effects, cells were treated with MPPs (0, 2.5, 5 and 10 µM) for 48 h and assayed using PE Annexin V Apoptosis Detection Kit (Cat. No. 559763, BD Biosciences) as recommended by the manufacturer.
# Hek293 cells [8] = test: Annexin V apoptosis assay, Hek293; type: cell-based, human; settings: Hek293, 10 µM, 48 h
# Procedure: as §3
# U2OS cells [9] = test: Annexin V apoptosis assay, U2OS; type: cell-based, human; settings: 48 h
# Procedure: as §3
# [10] = system: TERT, β-catenin, and cyclin D1 expression; test: Western blot of proliferative proteins in Huh7 cells; type: cell-based, human; settings: Huh7, 48 h
# Procedure: For SDS ‐PAGE, cellular lysates, and protein preparations such as IP were dissolved in Laemmli buffer, boiled for 1 min and separated on denaturing SDS gels as described.[28] After electrophoretic transfer of separated proteins to nitrocellulose sheets, western blot immunoassays employed enhanced chemiluminescence for signal detection (ECL^TM Prime, Amersham).[28]
# Taq DNA polymerase = target: T1, Taq DNA polymerase (Thermus aquaticus, UniProt P19821); test: Taq polymerase inhibition test, MPP added after the telomerase extension step of TRAP; type: biochemical; settings: TRAP, MPP added for the amplification steps only
# T1 construct: purchased Perkin‐Elmer Cetus, Norwalk, CT
# Procedure: For TRAP assay, a Quantitative Telomerase Detection Kit (US Biomax, Inc) was used to assay cellular lysates or TERT immunoprecipitates (IP) according to the manufacturer's directions. Relative telomerase activity was derived from a standard curve of reference samples and data were analyzed using relative fluorescence units as compared to controls. In some cases, telomerase reaction products were visualized and quantified with TRAPeze system (EMD/Millipore). After separation of the DNA products using 10% non‐denaturing PAGE and SYBR fluorescence labeling [1x SYBR safe DNA gel stain (Invitrogen)], gel bands were imaged with iBright 1500 (Invitrogen). The intensity of the sample's TRAP ladder and internal control was first measured using GelAnalyzer [GelAnalyzer 19.1 (www.gelanalyzer.com )] as recommended. Then, the relative telomerase activity was determined by the ratio of the intensity of the sample's TRAP ladder (telomerase products, TP) to that of the internal control (IC) band.
# Because of concerns that some quadruplex ligands inhibit Taq DNA polymerase in addition to telomerase, we assayed MPP inhibition at both steps of the TRAP procedure with a strategy similar to that of others.[36] Using equivalent extracts but separate assays, MPP was either included in the telomerase RT extension step or the extension step was conducted without MPP and then MPP added only for the amplification steps with Taq DNA polymerase. To avoid further potential errors introduced by Real‐time quantification, TRAP products were labeled with SYBR green, visualized on denaturing gels, and each lane was quantified by density measurements as described in the Methods. The latter step also ruled out the possibility that decreases in activity were artifactual due to fluorescence signal quenching by some MPPs.[37] […] All three MPPs had minimal effects on Taq polymerase […] and the slight inhibition of Taq polymerase seen for ZnPP was not directly concentration‐dependent.
# Enzymatic extracts were prepared from semi-confluent Huh7 cells and aliquots were assayed in triplicate using TRAP assay. CoPP was added to RT-PCR reactions either before or after the RT telomere elongation step to test whether it inhibited Taq polymerase. Visualization of amplified telomeric products was on 12% denaturing gels using SYBR fluorescence labelling (upper panels). Quantification was with densitometry as described in Methods and plot shown (lower panel). Plotted points represent the mean +/- SD with n =3. (IC)= internal Taq polymerase control.
# [11] = system: high molecular weight complexes containing telomerase; test: Fluorescent labelling of cellular lysate complexes on non-denaturing 0.8% agarose gels; type: binding, human; settings: Huh7 lysates, fluorescence visualization
# Procedure: 0.8% Agarose gels were run in Tris‐Borate‐EDTA buffer using standard slab gels as described for high molecular weight complexes.[27] Cell lysates were produced by lysing Hek293 and Huh7 cells in NP40 buffer (25 mM HEPES‐KOH, 150 mM KCl, 1.5mM MgCl2, 10% glycerol, 0.5% NP40, 5 mM 2ME, pH 7.5 supplemented with protease inhibitors) for 30 min on ice. Extracts were clarified by centrifugation for 16 000 g for 10 min. The protein concentration was determined by Bradford assay. The indicated amounts of proteins were treated with different amounts of ZnPP for 2 h on ice, and then separated on 0.8% Agarose gels prepared with 0.5xTris‐Borate‐EDTA (TBE) buffer. The gels were run at 100 V for 2 h at 4 °C in 0.5x TBE buffer. […] No antibody and normal rabbit IgG (sc‐2027, Santa Cruz Biotechnology) were included as controls. The IP products were treated with ZnPP and electrophoresed as above. Free ZnPP and ZnPP bound to large complexes were visualized using a wide‐wavelength UV lightbox or with red fluorescence using excitation (EX) 608–632 nm and emission (EM) 675–720 nm. Thyroglobulin (670 kD), a heavy MW marker, was run in parallel lanes and visualized with Coomassie Blue staining or fluorescence to size the complexes. In some cases, cell lysates or IP were incubated with RNase A (Life Technologies, NY); or DNase 1 (Qiagen, CA) 100 µg/ml for 1 h at 4 °C prior to electrophoresis.
# T1 sequence (P19821 whole entry): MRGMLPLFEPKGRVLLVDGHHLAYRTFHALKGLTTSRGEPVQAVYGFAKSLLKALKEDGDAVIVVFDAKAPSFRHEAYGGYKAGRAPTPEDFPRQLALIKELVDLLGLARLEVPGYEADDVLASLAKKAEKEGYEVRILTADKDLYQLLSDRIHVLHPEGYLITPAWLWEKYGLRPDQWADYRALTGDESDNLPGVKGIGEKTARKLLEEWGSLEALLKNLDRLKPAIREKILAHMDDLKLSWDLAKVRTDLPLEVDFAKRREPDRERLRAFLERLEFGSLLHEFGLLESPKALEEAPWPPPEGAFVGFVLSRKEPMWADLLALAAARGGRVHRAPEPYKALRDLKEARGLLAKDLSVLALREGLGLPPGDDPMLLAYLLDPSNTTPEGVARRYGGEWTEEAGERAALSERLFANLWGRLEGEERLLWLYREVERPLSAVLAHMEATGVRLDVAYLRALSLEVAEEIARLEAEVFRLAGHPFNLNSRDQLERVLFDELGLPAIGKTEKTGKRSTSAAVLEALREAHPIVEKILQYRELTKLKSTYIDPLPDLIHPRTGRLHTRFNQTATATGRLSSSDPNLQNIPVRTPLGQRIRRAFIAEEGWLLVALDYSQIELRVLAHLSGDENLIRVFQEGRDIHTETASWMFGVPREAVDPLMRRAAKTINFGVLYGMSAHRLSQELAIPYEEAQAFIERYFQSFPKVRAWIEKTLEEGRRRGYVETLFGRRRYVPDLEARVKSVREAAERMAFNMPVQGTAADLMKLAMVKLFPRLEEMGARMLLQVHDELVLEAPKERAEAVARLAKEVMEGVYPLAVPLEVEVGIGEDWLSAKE
structure (smiles),measurement,setting,value
"C=CC1=C(C)c2cc3[n-]c(cc4nc(cc5[n-]c(cc1n2)c(C)c5C=C)C(C)=C4CCC(=O)O)c(CCC(=O)O)c3C.[Zn+2] [ZnPP, zinc protoporphyrin]",Depression of cellular proliferation relative to vehicle only controls,Huh7 cells [1],greater than 50%
same,Depression of cellular proliferation relative to vehicle only controls,Hek293 cells [2],greater than 50%
same,Effect on proliferation in telomerase negative cells,U2OS cells [3],only minor effects on proliferation
same,Sensitivity of viability after TERT transfection,[4],restored ZnPP sensitivity
same,Effect on DNA synthesis (3H-thymidine incorporation),Huh7 cells [5],severely attenuated DNA synthesis
same,Effect on DNA synthesis (3H-thymidine incorporation),Hek293 cells [6],severely attenuated DNA synthesis
same,Apoptosis,Huh7 cells [7],~50%
same,Apoptosis,Hek293 cells [8],~50%
same,Effect on apoptosis in telomerase negative cells,U2OS cells [9],failed to have an increased effect on apoptosis
same,"Effect on expression of TERT, β-catenin and cyclin D1 (western blot)",[10],nearly eliminated
same,Effect on Taq polymerase,Taq DNA polymerase,minimal inhibition
same,Labelling/binding of cellular complexes on agarose gels,[11],bound to high molecular weight complexes in a concentration dependent manner
